According to ChEMBL document CHEMBL3351528, “Targeting dopamine D3 and serotonin 5-HT1A and 5-HT2A receptors for developing effective antipsychotics: synthesis, biological characterization, and behavioral studies” (J Med Chem, 2014):

Columns and labels:
Mus musculus [1] = test: Effect on spontaneous exploratory locomotor activity in orally dosed NMRI mouse measured for 30 mins with activity counts each 5 mins; format: ADME, organism-based; conditions: in vivo, po, 0.5 h
Mus musculus [2] = test: Toxicity in NMRI mouse assessed as induction of catalepsy up to 90 mg/kg, sc dosed 30 mins before test; format: organism-based; design: dose 90 mg/kg, route subcutaneous; conditions: in vivo, 0.5 h
[3] = target: T1, Adrenergic receptor alpha-1 (Homo sapiens, UniProt P35348+P25100+P35368); test: Binding affinity to alpha1 adrenoreceptor (unknown origin)
T1 sequence (P35348 whole entry): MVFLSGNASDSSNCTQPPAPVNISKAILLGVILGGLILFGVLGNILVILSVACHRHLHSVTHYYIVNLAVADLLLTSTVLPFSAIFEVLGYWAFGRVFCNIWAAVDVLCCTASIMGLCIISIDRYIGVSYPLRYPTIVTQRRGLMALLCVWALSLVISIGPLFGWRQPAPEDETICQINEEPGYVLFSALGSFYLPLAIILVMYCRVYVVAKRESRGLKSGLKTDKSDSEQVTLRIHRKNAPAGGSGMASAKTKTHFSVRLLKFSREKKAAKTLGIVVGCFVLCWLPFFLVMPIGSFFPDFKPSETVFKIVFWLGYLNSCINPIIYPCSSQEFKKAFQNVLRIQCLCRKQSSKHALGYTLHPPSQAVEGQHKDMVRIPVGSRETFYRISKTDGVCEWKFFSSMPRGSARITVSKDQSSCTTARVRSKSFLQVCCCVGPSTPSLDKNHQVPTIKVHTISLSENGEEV
T1 sequence (P25100 whole entry): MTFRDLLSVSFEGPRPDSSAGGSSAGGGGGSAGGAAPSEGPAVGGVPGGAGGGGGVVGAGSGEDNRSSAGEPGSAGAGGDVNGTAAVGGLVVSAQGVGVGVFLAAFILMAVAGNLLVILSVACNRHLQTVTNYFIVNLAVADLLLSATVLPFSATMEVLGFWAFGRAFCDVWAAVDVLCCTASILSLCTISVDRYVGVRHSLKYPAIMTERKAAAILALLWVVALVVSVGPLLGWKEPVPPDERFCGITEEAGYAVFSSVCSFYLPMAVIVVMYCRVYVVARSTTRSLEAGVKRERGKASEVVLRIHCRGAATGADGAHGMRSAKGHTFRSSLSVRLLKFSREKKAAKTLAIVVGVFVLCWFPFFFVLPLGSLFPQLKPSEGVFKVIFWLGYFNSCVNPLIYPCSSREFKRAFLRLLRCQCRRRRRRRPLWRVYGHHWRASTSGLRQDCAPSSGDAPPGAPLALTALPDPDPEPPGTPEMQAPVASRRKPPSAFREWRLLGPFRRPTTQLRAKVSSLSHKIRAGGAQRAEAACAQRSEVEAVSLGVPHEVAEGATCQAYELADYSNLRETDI
T1 sequence (P35368 whole entry): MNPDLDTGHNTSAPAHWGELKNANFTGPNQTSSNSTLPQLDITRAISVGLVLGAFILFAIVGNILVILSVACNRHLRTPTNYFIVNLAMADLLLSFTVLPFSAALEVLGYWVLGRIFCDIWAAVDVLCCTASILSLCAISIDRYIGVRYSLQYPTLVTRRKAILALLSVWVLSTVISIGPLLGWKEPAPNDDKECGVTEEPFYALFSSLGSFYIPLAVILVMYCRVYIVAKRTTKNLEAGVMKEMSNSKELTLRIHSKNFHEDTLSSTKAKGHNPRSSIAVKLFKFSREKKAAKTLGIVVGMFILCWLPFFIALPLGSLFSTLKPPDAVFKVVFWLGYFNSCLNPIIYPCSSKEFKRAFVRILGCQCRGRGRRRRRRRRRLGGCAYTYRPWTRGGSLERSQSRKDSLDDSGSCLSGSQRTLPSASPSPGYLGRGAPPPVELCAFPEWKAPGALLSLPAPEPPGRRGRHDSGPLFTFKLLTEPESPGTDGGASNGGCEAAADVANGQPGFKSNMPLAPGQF

Histamine H1 receptor = Histamine H1 receptor (Homo sapiens, UniProt P35367); test: Binding affinity to human histamine H1 receptor
D(3) dopamine receptor [4] = target: T2, D(3) dopamine receptor (Homo sapiens, UniProt P35462); test: Antagonist activity at human dopamine D3 receptor expressed in CHO-K1 cells assessed as reduction in dopamine-induced response by [35S]GTPgammaS binding assay; format: functional, cell-based
[5] = target: T3, 5-hydroxytryptamine receptor 1A (Homo sapiens, UniProt P08908); test: Agonist activity at human 5HT1A receptor (unknown origin) expressed in CHO cells by [35S]GTPgammaS binding assay; format: functional, cell-based
T3 sequence (P08908 whole entry): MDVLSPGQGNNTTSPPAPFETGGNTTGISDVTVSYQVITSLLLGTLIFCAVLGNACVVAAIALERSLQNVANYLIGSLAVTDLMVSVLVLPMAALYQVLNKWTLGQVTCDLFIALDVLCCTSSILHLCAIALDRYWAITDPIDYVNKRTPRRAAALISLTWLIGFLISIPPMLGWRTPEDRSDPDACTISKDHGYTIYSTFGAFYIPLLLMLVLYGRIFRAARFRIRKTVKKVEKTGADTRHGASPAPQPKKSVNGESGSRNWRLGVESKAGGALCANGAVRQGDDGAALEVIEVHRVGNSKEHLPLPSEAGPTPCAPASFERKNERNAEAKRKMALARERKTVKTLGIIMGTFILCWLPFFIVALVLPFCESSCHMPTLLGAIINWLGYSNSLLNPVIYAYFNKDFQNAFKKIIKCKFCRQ

hERG (KCNH2) = hERG (KCNH2) (Homo sapiens, UniProt Q12809); test: Inhibition of human ERG at 3 uM by whole cell based electrophysiology assay
Mus musculus [6] = test: Effect on startle response in mouse at 3 to 30 mg/kg, po; format: ADME, organism-based; design: dose 3-30 mg/kg, route oral; conditions: in vivo
Mus musculus [7] = test: Reduction in startle response in mouse at 30 mg/kg, po dosed 30 mins before testing; format: ADME, organism-based; design: dose 30 mg/kg, route oral; conditions: in vivo, 0.5 h
Mus musculus [8] = test: Effect on spontaneous locomotor activity in mouse at 30 mg/kg, ip; format: ADME, organism-based; design: dose 30 mg/kg, route intraperitoneal; conditions: in vivo
D(3) dopamine receptor [9] = target: T2, D(3) dopamine receptor
Description: Binding affinity to dopamine D3 receptor (unknown origin)

[10] = target: T4, 5-hydroxytryptamine receptor 2C (Homo sapiens, UniProt P28335)
T4 sequence (P28335 whole entry): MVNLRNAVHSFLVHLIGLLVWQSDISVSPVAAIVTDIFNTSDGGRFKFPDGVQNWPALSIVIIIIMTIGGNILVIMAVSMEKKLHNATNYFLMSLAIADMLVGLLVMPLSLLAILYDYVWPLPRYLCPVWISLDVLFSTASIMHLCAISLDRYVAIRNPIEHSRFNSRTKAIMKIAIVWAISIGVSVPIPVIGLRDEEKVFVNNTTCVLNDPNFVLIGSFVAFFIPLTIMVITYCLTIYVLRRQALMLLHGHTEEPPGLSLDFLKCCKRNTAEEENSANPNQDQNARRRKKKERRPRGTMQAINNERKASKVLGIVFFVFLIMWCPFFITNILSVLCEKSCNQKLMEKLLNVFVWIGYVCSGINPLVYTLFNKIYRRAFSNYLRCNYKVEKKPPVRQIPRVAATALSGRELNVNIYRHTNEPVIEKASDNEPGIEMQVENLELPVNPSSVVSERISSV
Description: Binding affinity to 5HT2C receptor (unknown origin)

T2 sequence (P35462 whole entry): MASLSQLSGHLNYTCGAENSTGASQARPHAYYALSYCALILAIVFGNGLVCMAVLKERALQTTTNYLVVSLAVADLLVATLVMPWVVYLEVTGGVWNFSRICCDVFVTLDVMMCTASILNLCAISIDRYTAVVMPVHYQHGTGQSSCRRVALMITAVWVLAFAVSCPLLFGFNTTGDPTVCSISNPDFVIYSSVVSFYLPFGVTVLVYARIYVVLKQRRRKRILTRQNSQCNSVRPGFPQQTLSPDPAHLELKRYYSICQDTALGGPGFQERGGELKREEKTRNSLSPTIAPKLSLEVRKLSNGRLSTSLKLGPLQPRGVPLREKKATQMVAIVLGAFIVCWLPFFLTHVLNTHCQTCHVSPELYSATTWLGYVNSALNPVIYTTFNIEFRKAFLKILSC
hERG (KCNH2), sequence (Q12809 whole entry): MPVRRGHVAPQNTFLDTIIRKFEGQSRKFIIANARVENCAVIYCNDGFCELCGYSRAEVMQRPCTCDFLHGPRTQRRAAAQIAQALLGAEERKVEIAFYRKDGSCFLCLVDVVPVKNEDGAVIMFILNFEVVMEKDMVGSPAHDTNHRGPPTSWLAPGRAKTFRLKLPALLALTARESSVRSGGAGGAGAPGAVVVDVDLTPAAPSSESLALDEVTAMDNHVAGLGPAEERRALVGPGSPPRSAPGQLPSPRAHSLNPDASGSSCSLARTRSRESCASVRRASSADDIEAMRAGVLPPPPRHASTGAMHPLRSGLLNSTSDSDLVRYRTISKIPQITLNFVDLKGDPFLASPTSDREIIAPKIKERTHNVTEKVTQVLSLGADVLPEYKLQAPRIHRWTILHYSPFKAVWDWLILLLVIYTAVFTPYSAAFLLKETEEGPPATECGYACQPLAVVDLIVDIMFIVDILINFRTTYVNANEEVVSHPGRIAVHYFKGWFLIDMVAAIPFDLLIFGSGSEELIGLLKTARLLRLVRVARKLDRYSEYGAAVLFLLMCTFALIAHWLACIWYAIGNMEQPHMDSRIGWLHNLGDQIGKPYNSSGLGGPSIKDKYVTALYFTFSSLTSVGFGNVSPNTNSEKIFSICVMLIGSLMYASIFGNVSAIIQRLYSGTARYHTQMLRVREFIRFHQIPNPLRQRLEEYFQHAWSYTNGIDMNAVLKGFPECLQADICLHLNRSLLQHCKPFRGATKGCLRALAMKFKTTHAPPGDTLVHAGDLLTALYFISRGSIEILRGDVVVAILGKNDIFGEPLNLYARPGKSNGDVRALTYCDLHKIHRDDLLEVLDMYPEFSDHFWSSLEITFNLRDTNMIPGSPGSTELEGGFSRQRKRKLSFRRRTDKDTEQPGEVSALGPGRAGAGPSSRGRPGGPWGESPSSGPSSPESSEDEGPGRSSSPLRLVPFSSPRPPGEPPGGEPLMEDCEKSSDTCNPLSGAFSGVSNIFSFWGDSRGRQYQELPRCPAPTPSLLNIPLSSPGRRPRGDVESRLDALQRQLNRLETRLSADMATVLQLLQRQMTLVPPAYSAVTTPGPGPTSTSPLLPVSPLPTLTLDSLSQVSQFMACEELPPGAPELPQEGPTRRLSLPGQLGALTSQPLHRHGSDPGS
Histamine H1 receptor, sequence (P35367 whole entry): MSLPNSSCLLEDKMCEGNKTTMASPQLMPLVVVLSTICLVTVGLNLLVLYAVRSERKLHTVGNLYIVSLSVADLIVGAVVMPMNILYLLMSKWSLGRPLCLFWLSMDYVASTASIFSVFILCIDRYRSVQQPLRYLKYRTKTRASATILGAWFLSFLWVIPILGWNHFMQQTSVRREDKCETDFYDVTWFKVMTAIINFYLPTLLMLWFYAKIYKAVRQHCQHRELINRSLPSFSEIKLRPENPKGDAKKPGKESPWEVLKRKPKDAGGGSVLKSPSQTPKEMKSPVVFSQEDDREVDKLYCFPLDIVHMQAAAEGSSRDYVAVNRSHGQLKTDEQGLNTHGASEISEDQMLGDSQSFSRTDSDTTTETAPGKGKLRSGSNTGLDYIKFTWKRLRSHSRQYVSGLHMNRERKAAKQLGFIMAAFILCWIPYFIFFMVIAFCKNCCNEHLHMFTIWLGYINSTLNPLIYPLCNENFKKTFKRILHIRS

MED (Mus musculus [1]): <= 3 mg kg-1 | Ki [3]: 50 nM | Ki (Histamine H1 receptor): 110 nM | IC50 (D(3) dopamine receptor [4]): 258 nM | EC50 [5]: 1800 nM | Ki (D(3) dopamine receptor [9]): 0.6 nM | Ki [10]: > 1000 nM
SMILES: O=C(NCCCCN1CCN(c2ccccc2)CC1)c1ccc2ncccc2c1
Activity (Mus musculus [2]): Non-toxic | inhibition at 3 µM (hERG (KCNH2)): 24% | Activity (Mus musculus [6]): Non-toxic | Activity (Mus musculus [7]): Toxic | Activity (Mus musculus [8]): Toxic
